Results from patent US9896418B2, “Aryl ethers and uses thereof” (Peloton Therapeutics, Inc., priority 2013, dated 2018).

These molecules were tested on HIF-2α HIS TAG-PASB Domain (assay: HIF-2α Scintillation Proximity Assay (SPA)).
Type: binding
Description: The percent inhibition was determined and IC50 values were calculated using the Dotmatics system based on the following equation: % inhibition=[(high control−sample)/(high control−low control)]×100.
N#Cc1cc(F)cc(Oc2ccc(S(=O)(=O)C(F)(F)F)c3c2CC(F)(F)[C@H]3O)c1 [Example 185, (S)-3-((2,2-Difluoro-1-hydroxy-7-((trifluoromethyl)sulfonyl)-2,3-dihydro-1H-inden-4-yl)oxy)-5-fluorobenzonitrile] was tested, and the IC50 was < 5 nM. In the case of CS(=O)(=NC#N)c1ccc(Oc2cc(F)cc(C#N)c2)c2c1[C@H](O)C(F)(F)[C@@H]2F (single isomer, unassigned) [Example 316], the IC50 is reported as < 5 nM. O=S(=O)(c1ccc(Oc2cccc(C(F)(F)F)c2)c(Br)c1CO)C(F)F [Compound 89, (2-Bromo-6-((difluoromethyl)sulfonyl)-3-(3-(trifluoromethyl)phenoxy)phenyl)methanol] showed an IC50 of 1400 nM. With CS(=O)(=O)c1cc(F)c(Oc2cc(F)cc(C#N)c2)c2c1C(O)C(F)(F)C2 (centres unmarked) [Compound 219, 3-Fluoro-5-((2,2,5-trifluoro-1-hydroxy-7-(methylsulfonyl)-2,3-dihydro-1H-inden-4-yl)oxy)benzonitrile] the IC50 was 17000 nM. CS(=O)(=O)c1ccc(Oc2cncc(Br)c2)c2c1[C@H](O)[C@H](F)C2 [Compound 326, (1S,2R)-4-((5-Bromopyridin-3-yl)oxy)-2-fluoro-7-(methylsulfonyl)-2,3-dihydro-1H-inden-1-ol] was tested, and the IC50 was 1280 nM. For CS(=O)(=O)c1ccc(Oc2cncc(C#N)c2)c2c1[C@H](O)[C@H](F)C2 [Compound 313, 5-(((1S,2R)-2-fluoro-1-hydroxy-7-(methylsulfonyl)-2,3-dihydro-1H-inden-4-yl)oxy)nicotinonitrile], the IC50 was 1800 nM. Molecule N#Cc1cc(F)cc(Oc2ccc(S(=O)(=O)C(F)(F)F)c3c2[C@@H](N)C[C@H]3O)c1 (relative stereo) [Compound 279, 3-((cis-3-amino-1-hydroxy-7-((trifluoromethyl)sulfonyl)-2,3-dihydro-1H-inden-4-yl)oxy)-5-fluorobenzonitrile] has an IC50 of 5100 nM. With N=S(=O)(c1ccc(Oc2cc(F)cc(Cl)c2)c(Br)c1Cl)C(F)(F)F (centres unmarked) [Compound 75, (3-bromo-2-chloro-4-(3-chloro-5-fluorophenoxy)phenyl)(imino)(trifluoromethyl)-λ^6-sulfanone] the IC50 was 240 nM. Molecule N#Cc1cc(F)cc(Oc2ccc(S(=O)(=O)C(F)(F)F)cc2Br)c1 [Compound 118, 3-(2-Bromo-4-((trifluoromethyl)sulfonyl)phenoxy)-5-fluorobenzonitrile] has an IC50 of 160 nM. Molecule O=S(=O)(c1ccc(Oc2cc(F)cc(Cl)c2)c(Br)c1)C(F)F [Compound 131, 2-Bromo-1-(3-chloro-5-fluorophenoxy)-4-((difluoromethyl)sulfonyl)benzene] has an IC50 of 310 nM. Work on Cc1c(S(=O)(=O)C(F)F)ccc(Oc2cc(F)cc(C#N)c2)c1C#N [Compound 33, 6-(3-Cyano-5-fluorophenoxy)-3-((difluoromethyl)sulfonyl)-2-methylbenzonitrile] yielded an IC50 of 157 nM. In the case of CC(=O)c1c(S(=O)(=O)C(F)(F)F)ccc(Oc2cc(F)cc(C#N)c2)c1C#N [Compound 79, 2-Acetyl-6-(3-cyano-5-fluorophenoxy)-3-((trifluoromethyl)sulfonyl)benzonitrile], the IC50 is reported as 1300 nM. For N#Cc1cc(F)cc(Oc2ccc(S(=O)(=O)C(F)(F)F)c(Cl)c2C#N)c1 [Compound 29, 2-Chloro-6-(3-cyano-5-fluorophenoxy)-3-((trifluoromethyl)sulfonyl)benzonitrile], the IC50 was 22 nM. Cc1c(S(=O)(=O)C(F)F)ccc(Oc2cc(F)cc(Cl)c2)c1C#N [Compound 32, 6-(3-Chloro-5-fluorophenoxy)-3-((difluoromethyl)sulfonyl)-2-methylbenzonitrile] was tested, and the IC50 was 18 nM. O=Cc1c(S(=O)(=O)C(F)(F)F)ccc(Oc2cc(F)cc(Cl)c2)c1Br [Compound 101, 2-Bromo-3-(3-chloro-5-fluorophenoxy)-6-((trifluoromethyl)sulfonyl)benzaldehyde] gave an IC50 of 26 nM. In the case of CS(=O)(=O)c1ccc(Oc2cncc(F)c2)c2c1[C@H](O)C(F)(F)[C@@H]2F [Compound 329, (1S,3R)-2,2,3-trifluoro-4-((5-fluoropyridin-3-yl)oxy)-7-(methylsulfonyl)-2,3-dihydro-1H-inden-1-ol], the IC50 is reported as < 5 nM. In the case of O=[N+]([O-])c1c(Oc2cc(F)cc(Cl)c2)ccc(C(F)(F)F)c1Cl [Compound 203, 2-Chloro-4-(3-chloro-5-fluorophenoxy)-3-nitro-1-(trifluoromethyl)benzene], the IC50 is reported as 77 nM. In the case of “(1R,3S)-4-(3-chloro-5-fluorophenoxy)-3-(hydroxymethyl)-7-((trifluoromethyl)sulfonyl)-2,3-dihydro-1H-inden-1-ol [Compound 281]”, the IC50 is reported as 730 nM. For CS(=O)(=O)c1ccc(Oc2cc(F)cc(C#N)c2)c2c1[C@H](O)C[C@@H]2F [Compound 295, 3-fluoro-5-[(1R,3S)-3-fluoro-1-hydroxy-7-methylsulfonyl-indan-4-yl]oxy-benzonitrile], the IC50 was 230 nM. C/C=C/c1c(S(=O)(=O)C(F)F)ccc(Oc2cc(F)cc(C#N)c2)c1C#N [Compound 178, (E)-6-(3-Cyano-5-fluorophenoxy)-3-((difluoromethyl)sulfonyl)-2-(prop-1-en-1-yl)benzonitrile] gave an IC50 of 920 nM. O=Cc1cc(S(=O)(=O)C(F)(F)F)ccc1Oc1cc(F)cc(Cl)c1 [Compound 123, 2-(3-Chloro-5-fluorophenoxy)-5-((trifluoromethyl)sulfonyl)benzaldehyde] gave an IC50 of 32 nM. Molecule N=S(=O)(c1ccc(Oc2cc(F)cc(Cl)c2)c(Br)c1)C(F)F (centres unmarked) [Compound 69, 2-bromo-1-(3-chloro-5-fluorophenoxy)-4-((difluoromethyl)sulfonimidoyl)benzene] has an IC50 of 1300 nM. For O=S(=O)(c1ccc(Oc2cc(F)cc(Cl)c2)c(CCO)c1)C(F)(F)F [Compound 127, 2-[2-(3-Chloro-5-fluoro-phenoxy)-5-(trifluoromethylsulfonyl)phenyl]ethanol], the IC50 was 2800 nM. For C[C@@H]1Cc2c(Oc3cc(F)cc(C#N)c3)ccc(S(C)(=O)=O)c2[C@@H]1O [Compound 301, 3-fluoro-5-(((1R,2R)-1-hydroxy-2-methyl-7-(methylsulfonyl)-2,3-dihydro-1H-inden-4-yl)oxy)benzonitrile], the IC50 was 1900 nM. For N#Cc1cccc(Oc2ccc(S(=O)(=O)C(F)F)c3c2CC(F)(F)[C@H]3O)c1 [Example 236, (S)-3-((7-((difluoromethyl)sulfonyl)-2,2-difluoro-1-hydroxy-2,3-dihydro-1H-inden-4-yl)oxy)benzonitrile], the IC50 was < 5 nM. O=S(=O)(c1ccc(Oc2cc(F)cc(Cl)c2)c(Br)c1CNCCO)C(F)(F)F [Compound 108, 2-((2-Bromo-3-(3-chloro-5-fluorophenoxy)-6-((trifluoromethyl)sulfonyl)benzyl)amino)ethan-1-ol] showed an IC50 of 5800 nM. Cc1cc(Oc2cc(F)cc(C#N)c2)c2c(c1S(C)(=O)=O)C(O)C(F)(F)C2 (centres unmarked) [Compound 213, 3-((2,2-Difluoro-1-hydroxy-6-methyl-7-(methylsulfonyl)-2,3-dihydro-1H-inden-4-yl)oxy)-5-fluorobenzonitrile] showed an IC50 of 800 nM. Work on O=S(=O)(c1ccc(Oc2ccc(F)c(Cl)c2)c2c1[C@H](O)C(F)(F)C2)C(F)(F)F [Example 221, (S)-4-(3-Chloro-4-fluorophenoxy)-2,2-difluoro-7-((trifluoromethyl)sulfonyl)-2,3-dihydro-1H-inden-1-ol] yielded an IC50 of 29 nM. CS(=O)(=O)c1ccc(Oc2cc(F)cc(Cl)c2)c(C(F)F)c1C#N [Compound 92, 3-(3-Chloro-5-fluorophenoxy)-2-(difluoromethyl)-6-(methylsulfonyl)benzonitrile] showed an IC50 of 37 nM.
